Results on 23 compounds are retold here after patent publication US8415469B2, “Compounds and methods for kinase modulation, and indications therefor” (Plexxikon Inc., priority 2005, dated 2013).

Holding throughout (type): biochemical
One experiment concerns the target T1, Zap70 (Homo sapiens, UniProt P43403).
T1 construct: P1868.pFastBac1 ZAP70 D327-G606 HIS, WT; His7 (HHHHHHH) (C); made in house
T1 sequence (P43403 with tags, fused parts or gaps): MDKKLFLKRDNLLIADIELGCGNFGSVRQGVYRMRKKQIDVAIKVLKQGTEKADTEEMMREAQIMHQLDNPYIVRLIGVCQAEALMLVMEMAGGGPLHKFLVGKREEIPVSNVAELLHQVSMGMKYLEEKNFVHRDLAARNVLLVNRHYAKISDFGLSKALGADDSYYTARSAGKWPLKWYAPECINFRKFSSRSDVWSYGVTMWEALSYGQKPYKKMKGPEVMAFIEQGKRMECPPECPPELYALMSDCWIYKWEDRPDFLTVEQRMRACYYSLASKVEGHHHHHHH
Nature of the experiment: AlphaScreen kinase assay, Zap70. To be noted: read-out: IC50, activity toward kinase Zap70. The method in brief:
(§1)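 Compounds in DMSO (20 mM stock) were diluted 1:3 across 8 points. Each kinase phosphorylated a biotin-labelled peptide. Signal generated when donor and acceptor beads came close via antibody binding of phosphorylated substrate.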
(In general: Alpha assays give light when donor and acceptor beads are brought close together.)

The target in the next experiment is T2, Flt3 (Homo sapiens, UniProt P36888).
T2 construct: purchased Invitrogen (assay run by Invitrogen)
T2 sequence (P36888 27-993): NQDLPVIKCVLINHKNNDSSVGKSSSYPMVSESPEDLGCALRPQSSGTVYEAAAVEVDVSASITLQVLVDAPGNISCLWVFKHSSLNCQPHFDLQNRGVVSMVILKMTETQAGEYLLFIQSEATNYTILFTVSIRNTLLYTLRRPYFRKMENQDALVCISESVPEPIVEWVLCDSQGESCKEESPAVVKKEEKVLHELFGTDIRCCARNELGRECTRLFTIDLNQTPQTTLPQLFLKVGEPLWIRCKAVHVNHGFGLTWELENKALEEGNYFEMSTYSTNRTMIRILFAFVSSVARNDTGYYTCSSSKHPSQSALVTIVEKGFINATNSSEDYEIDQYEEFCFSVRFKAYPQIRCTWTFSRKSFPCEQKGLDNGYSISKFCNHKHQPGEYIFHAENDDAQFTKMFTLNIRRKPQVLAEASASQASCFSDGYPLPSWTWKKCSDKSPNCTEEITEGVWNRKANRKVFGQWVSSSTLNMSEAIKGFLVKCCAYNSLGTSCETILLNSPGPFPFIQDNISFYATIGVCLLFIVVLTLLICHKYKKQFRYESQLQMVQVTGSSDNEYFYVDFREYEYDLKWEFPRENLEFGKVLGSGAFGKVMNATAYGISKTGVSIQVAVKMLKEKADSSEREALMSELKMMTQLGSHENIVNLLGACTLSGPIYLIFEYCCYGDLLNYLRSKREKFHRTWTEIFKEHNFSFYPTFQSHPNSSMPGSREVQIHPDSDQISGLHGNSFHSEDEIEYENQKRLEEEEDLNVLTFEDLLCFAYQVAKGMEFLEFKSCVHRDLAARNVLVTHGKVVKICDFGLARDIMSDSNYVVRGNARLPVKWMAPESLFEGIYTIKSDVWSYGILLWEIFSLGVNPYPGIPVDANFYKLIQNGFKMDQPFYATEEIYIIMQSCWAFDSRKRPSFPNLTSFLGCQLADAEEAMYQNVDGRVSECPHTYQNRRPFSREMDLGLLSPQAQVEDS
Nature of the experiment: Z'-Lyte FRET kinase assay (Invitrogen), Flt3. The conditions noted are these: read-out: IC50, activity toward kinase Flt3. The text has this:
The effect of potential modulators of kinase activity can be measured in a variety of different assays known in the art. For example, direct radiometric, indirect FRET or AlphaScreen assays may be used to assess the level of phosphorylation of a substrate in the presence of test compounds in order to determine the inhibitory affect of the compound on the kinase. Invitrogen (Carlsbad, Calif.) uses a FRET based assay for Btk, EGFR, EphB2, Flt3, lrak4, Kdr, MAP2K1, MAPKAPK2, PDGFRB, PKC theta, Stk6 and Yes. For these assays, compounds of the invention were screened by Invitrogen using Z′-Lyte™ kinase assay.
Briefly, the Invitrogen kinase assay involves use of a specific peptide substrate optimized for each kinase, containing a fluorophore at each end that make up the FRET pair. The peptide sensitivity to proteolytic cleavage depends on phosphorylation of the peptide. Non-phosphorylated peptide is cleaved by a protease while peptide phosphorylated by the kinase is not cleaved. Cleavage of the peptide disrupts the FRET between the donor (coumarin) and acceptor (fluorescein) fluorophores, resulting in an increase in the ratio of donor emission to acceptor emission. The emission ratio of coumarin to fluorescein is used to assess the reaction progress. The extent of phosphorylation is determined from the emission ratio, which is low when the kinase is active (phosphorylated peptide is not cleaved, FRET pair connected) or higher for inhibited kinase (non-phosphorylated peptide is cleaved, FRET pair separated). Thus, the assay involves a kinase reaction in the presence of varying concentrations of a given compound, a development reaction with site specific protease, and detection of the fluorescent emission ratio of coumarin and fluorscein. […] Reaction conditions for each kinase are determined to provide optimal reaction times, incubation temperature, kinase and ATP concentrations. Test samples are made up in 1× kinase buffer (50 mM HEPES pH 7.5, 50 mM MgCl2, 5 mM EGTA, 0.05% BRIJ-35) and compound at desired concentration prepared in DMSO such that the final DMSO is 1%. […] Typically, assay plates are prepared to 10 μl final volume per sample, adding 2.5 μl of compound at 4× the desired concentration in 4% DMSO (serial dilution of compound provides concentration curve), 5 μl of the desired kinase mixed with Z′-LYTE™ peptide substrate (2× in 2× kinase buffer, final peptide at 2 μM), and 2.5 μl of 4×ATP solution. All kinase except for MAP2K1 were at 10 μM ATP in the kinase reaction, while MAP2K1 was at 100 μM. Samples are mixed and the kinase reaction is incubated 1 hour at room temperature, after which 5 μl of development solution is added and mixed. After incubation for another 1 hour at room temperature, 5 μl of stop reagent is added to each sample and mixed. The fluorescence signals are measured to determine the emission ratio.

The target of a further experiment is PDGFRA (Homo sapiens, UniProt P16234). Nature of the experiment: AlphaScreen kinase assay, PDGFRA. To be noted: read-out: IC50, activity toward kinase PDGFRA. The text has this:
AlphaScreen assay was used to screen additional kinases. The assay is similarly dependent on the phosphorylation of a peptide substrate. In this assay, an antibody that recognizes phosphorylated substrate is bound to an acceptor bead. The peptide substrate is attached to biotin, which binds to a donor head that contains streptavidin. Thus phosphorylated substrate is bound by antibody and streptavidin, bringing the donor and acceptor heads into close proximity when kinase is not inhibited. The donor produces singlet oxygen which results in emission from the acceptor when they are in close proximity. Conversely, when kinase is inhibited, the donor and acceptor beads are not associated and the emission from the acceptor is reduced.
AlphaScreen assays were done using compounds dissolved in DMSO to a concentration of 20 mM. The compounds were diluted accordingly to the desired final concentrations in each sample well, using 1:3 serial dilution for a total of 8 concentration points.

For a further experiment, the target named is Gsk3β (Homo sapiens, UniProt P49841). Nature of the experiment: AlphaScreen kinase assay, Gsk3β. To be noted: read-out: IC50, activity toward kinase Gsk3β. The method, boiled down: as §1
Gsk3β, sequence (P49841 whole entry): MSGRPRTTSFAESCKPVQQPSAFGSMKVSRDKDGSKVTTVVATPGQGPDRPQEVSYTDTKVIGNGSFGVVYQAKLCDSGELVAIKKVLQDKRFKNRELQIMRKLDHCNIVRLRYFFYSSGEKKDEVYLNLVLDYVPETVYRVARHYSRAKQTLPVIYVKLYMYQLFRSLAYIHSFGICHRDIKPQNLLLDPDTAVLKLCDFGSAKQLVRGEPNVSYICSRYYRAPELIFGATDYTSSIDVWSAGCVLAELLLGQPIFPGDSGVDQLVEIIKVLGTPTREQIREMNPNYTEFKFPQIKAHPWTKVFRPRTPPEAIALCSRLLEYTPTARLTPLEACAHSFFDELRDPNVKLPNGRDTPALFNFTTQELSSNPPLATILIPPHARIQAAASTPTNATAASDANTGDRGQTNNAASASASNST

PDGFRA, sequence (P16234 24-1089): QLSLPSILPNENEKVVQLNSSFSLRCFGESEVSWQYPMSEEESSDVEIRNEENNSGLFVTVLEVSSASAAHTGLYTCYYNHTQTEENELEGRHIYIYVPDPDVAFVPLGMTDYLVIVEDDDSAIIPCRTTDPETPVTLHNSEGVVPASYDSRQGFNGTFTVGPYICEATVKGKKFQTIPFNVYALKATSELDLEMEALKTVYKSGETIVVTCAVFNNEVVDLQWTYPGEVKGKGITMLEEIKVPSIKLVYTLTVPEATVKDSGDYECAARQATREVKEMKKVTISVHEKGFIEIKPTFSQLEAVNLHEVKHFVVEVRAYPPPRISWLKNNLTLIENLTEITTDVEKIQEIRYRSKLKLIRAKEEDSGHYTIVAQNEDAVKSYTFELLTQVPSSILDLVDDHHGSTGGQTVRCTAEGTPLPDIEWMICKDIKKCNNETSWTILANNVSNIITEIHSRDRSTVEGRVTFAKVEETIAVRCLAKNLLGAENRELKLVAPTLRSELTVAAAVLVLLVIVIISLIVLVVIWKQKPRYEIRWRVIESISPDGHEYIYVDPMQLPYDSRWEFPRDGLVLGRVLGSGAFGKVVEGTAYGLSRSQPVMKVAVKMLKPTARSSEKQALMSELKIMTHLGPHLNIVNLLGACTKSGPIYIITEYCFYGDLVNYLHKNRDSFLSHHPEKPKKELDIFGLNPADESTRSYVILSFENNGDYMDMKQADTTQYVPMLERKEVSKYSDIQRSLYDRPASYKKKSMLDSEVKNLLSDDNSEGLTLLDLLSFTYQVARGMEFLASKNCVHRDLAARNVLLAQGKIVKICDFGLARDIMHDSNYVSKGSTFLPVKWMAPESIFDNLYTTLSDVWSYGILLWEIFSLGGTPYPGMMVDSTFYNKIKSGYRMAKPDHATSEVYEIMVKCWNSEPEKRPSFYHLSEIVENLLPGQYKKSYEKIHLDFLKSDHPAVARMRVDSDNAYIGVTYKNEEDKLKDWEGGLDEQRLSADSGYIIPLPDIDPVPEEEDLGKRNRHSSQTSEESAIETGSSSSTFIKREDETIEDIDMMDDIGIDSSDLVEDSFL

For the compound `CC(=O)Nc1cccc(-c2cnc3[nH]cc(C(=O)c4cc(O)ccc4F)c3c2)c1` [Compound P-0001], the 50% inhibitory concentration (IC50) (commonly the point on the concentration scale where inhibition reaches its midpoint) at Zap70 was no more than 10 µM.

As for `CC(=O)Nc1cccc(-c2cnc3[nH]cc(C(=O)c4cccc(O)c4F)c3c2)c1` [Compound P-0035, N-{3-[3-(2-Fluoro-3-hydroxy-benzoyl)-1H-pyrrolo[2,3-b]pyridin-5-yl]-phenyl}-acetamide], the IC50 at Zap70 is no more than 10 µM. As to `CCCCNC(=O)Nc1ccc(F)c(C(=O)c2c[nH]c3ncc(-c4cccnc4)cc23)c1F` [Compound P-1318, 1-Butyl-3-[2,4-difluoro-3-(5-pyridin-3-yl-1H-pyrrolo[2,3-b]pyridine-3-carbonyl)-phenyl]-urea], on Flt3, the 50% inhibitory concentration (IC50) is no more than 10 µM.

Regarding `Cc1ccc(S(=O)(=O)NCc2c[nH]c3ncccc23)cc1` [Compound P-0058], the half-inhibitory concentration (IC50) on Zap70 is no more than 10 µM.

Take `COc1cc(OC)cc(C(=O)c2c[nH]c3ncc(-c4cccc(NS(C)(=O)=O)c4)cc23)c1` [Compound P-1426, N-{3-[3-(3,5-Dimethoxy-benzoyl)-1H-pyrrolo[2,3-b]pyridin-5-yl]-phenyl}-methanesulfonamide]: the concentration for half-maximal inhibition (IC50) on Flt3, at PDGFRA and on Gsk3β was no more than 10 µM each time. In the case of `CCCS(=O)(=O)Nc1ccc(F)c(C(=O)c2c[nH]c3ncccc23)c1F` [Compound P-0007, Propane-1-sulfonic acid [2,4-difluoro-3-(1H-pyrrolo[2,3-b]pyridine-3-carbonyl)-phenyl]-amide], the IC50 on PDGFRA and at Gsk3β was no more than 10 µM each time. Turning to `Cc1ccccc1C(=O)c1c[nH]c2nccc(-c3cccc(NS(C)(=O)=O)c3)c12` [Compound P-0109], the IC50 on Gsk3β is no more than 10 µM. Turning to `O=C(c1cc(O)ccc1F)c1c[nH]c2ncc(-c3cccs3)cc12` [Compound P-0032], the IC50 at Zap70 is no more than 10 µM.

For `O=C(O)/C=C/c1cccc(-c2cnc3[nH]cc(C(=O)c4ccccc4F)c3c2)c1` [Compound P-0033], at Zap70, the IC50 is no more than 10 µM. Consider `Fc1cc(F)cc(-c2ccnc3[nH]cc(Sc4ccccn4)c23)c1` [Compound P-0106], for which, at Gsk3β, the IC50 was no more than 10 µM. As for `CCCS(=O)(=O)Nc1ccc(F)c(C(=O)c2c[nH]c3ncc(-c4cccnc4)cc23)c1F` [Compound P-0088, Propane-1-sulfonic acid [2,4-difluoro-3-(5-pyridin-3-yl-1H-pyrrolo[2,3-b]pyridine-3-carbonyl)-phenyl]-amide], the IC50 at Flt3 is no more than 10 µM.

As to `COc1ccc(C(=O)c2c[nH]c3ncc(-c4cccc(/C=C/C(=O)O)c4)cc23)c(Cl)c1` [Compound P-0015], the IC50 at Zap70 and on Gsk3β was no more than 10 µM in each case. For the compound `CCCS(=O)(=O)Nc1ccc(F)c(C(=O)c2c[nH]c3ncc(-c4ccccc4)cc23)c1F` [Compound P-0636, Propane-1-sulfonic acid [2,4-difluoro-3-(5-phenyl-1H-pyrrolo[2,3-b]pyridine-3-carbonyl)-phenyl]-amide], the IC50 on Flt3 is no more than 10 µM. As to `Cn1cc(C(F)(F)F)c(-c2ccc(S(=O)(=O)NCc3c[nH]c4ncccc34)s2)n1` [Compound P-0041], at Zap70, the IC50 is no more than 10 µM. On to `CCCC(=O)Nc1ccc(F)c(Cc2c[nH]c3ncc(-c4cccnc4)cc23)c1F` [Compound P-1280], for which the IC50 at Flt3 and at PDGFRA was no more than 10 µM each time. As for `O=C(Nc1ccc(Cc2c[nH]c3ncccc23)cc1)Nc1cccc(C(F)(F)F)c1` [Compound P-0262, 1-[4-(1H-Pyrrolo[2,3-b]pyridin-3-ylmethyl)-phenyl]-3-(3-trifluoromethyl-phenyl)-urea], at Flt3, the IC50 was no more than 10 µM. Consider `Cc1ccccc1C(=O)c1c[nH]c2nccc(-c3ccc(C(N)=O)cc3)c12` [Compound P-0017], for which the IC50 on Gsk3β is no more than 10 µM. Turning to `CCCS(=O)(=O)Nc1ccc(F)c(C(=O)c2c[nH]c3ncc(OC)cc23)c1F` [Compound P-0806, Propane-1-sulfonic acid [2,4-difluoro-3-(5-methoxy-1H-pyrrolo[2,3-b]pyridine-3-carbonyl)-phenyl]-amide], the IC50 on Flt3 and at PDGFRA was no more than 10 µM in each case.

With `NC(=O)c1cccc(-c2cnc3[nH]cc(C(=O)c4cccc(O)c4F)c3c2)c1` [Compound P-0034, 3-[3-(2-Fluoro-3-hydroxy-benzoyl)-1H-pyrrolo[2,3-b]pyridin-5-yl]benzamide], at Zap70, the IC50 is no more than 10 µM. Still for that read-out and setting: as for `Cc1ccc(F)cc1C(=O)c1c[nH]c2ncc(-c3cccc(N)c3)cc12` [Compound P-0040], the figure is no more than 10 µM; as for `CS(=O)(=O)Nc1cccc(-c2cnc3[nH]cc(C(=O)c4cccc(O)c4F)c3c2)c1` [Compound P-0038, N-{3-[3-(2-Fluoro-3-hydroxy-benzoyl)-1H-pyrrolo[2,3-b]pyridin-5-yl]-phenyl}-methanesulfonamide], no more than 10 µM; as for `Nc1cccc(-c2cnc3[nH]cc(C(=O)c4cccc(O)c4F)c3c2)c1` [Compound P-0004, [5-(3-amino-phenyl)-1H-pyrrolo[2,3-b]pyridin-3-yl]-(2-fluoro-3-hydroxy-phenyl)methanone], no more than 10 µM. On to `OCCOc1ccc(F)c(Cc2c[nH]c3ncc(-c4cccnc4)cc23)c1F` [Compound P-1394, 2-[2,4-Difluoro-3-(5-pyridin-3-yl-1H-pyrrolo[2,3-b]pyridin-3-ylmethyl)-phenoxy]-ethanol], for which the IC50 on Flt3 and on PDGFRA was no more than 10 µM each time.
